Columns and labels:
adenosine A2 receptor = target: T1, adenosine A2 receptor (Rattus norvegicus, UniProt P30543); assay: Adenosine Receptor Binding--A2 Receptor Affinity (RBA2), [3H]NECA displacement, rat striatal membranes; parameters: species or system rat (Sprague-Dawley; Long-Evans); conditions: 4 nM [3H]NECA, 50 nM N6-cyclopentyladenosine, 25° C., 60 min, read-out: IC50 for adenosine A2 receptor affinity (RBA-2)
T1 construct: Brains were thawed and then kept on ice while the striata were dissected out; tissue Pel-Freez (Rogers, Ark.); host or cells: rat striatum, membranes
T1 sequence (P30543 whole entry): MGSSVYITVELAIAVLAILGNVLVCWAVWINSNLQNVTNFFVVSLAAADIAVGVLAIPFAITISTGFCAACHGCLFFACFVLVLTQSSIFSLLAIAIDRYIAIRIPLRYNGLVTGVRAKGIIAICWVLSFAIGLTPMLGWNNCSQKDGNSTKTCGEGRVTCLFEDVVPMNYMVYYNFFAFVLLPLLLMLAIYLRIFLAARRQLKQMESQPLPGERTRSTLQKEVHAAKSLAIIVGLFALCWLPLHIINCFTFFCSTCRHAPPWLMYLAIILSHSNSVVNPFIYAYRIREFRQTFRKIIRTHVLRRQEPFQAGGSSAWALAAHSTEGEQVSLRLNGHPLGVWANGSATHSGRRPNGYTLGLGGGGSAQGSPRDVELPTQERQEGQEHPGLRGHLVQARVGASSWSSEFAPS
Protocol: Brains from 200-500 g mixed sex Sprague-Dawley rats were purchased from Pel-Freez (Rogers, Ark.). Fresh brains from male Long-Evans hooded rats (Blue Spruce Farms, Altamont, NY) gave essentially identical results. Brains were thawed and then kept on ice while the striata were dissected out. Striata were disrupted in 10 vol of ice-cold 50 mM Tris.HCl (pH 7.7 at 25° C., pH 8.26 at 5° C.) (Tris) for 30 seconds in a Polytron PT-10 (Brinkmann) at setting 5. The suspension was centrifuged at 50,000×g for ten minutes, the supernatant discarded, the pellet resuspended in 10 vol ice-cold Tris as above, recentrifuged, resuspended at 1 g/5 ml, and stored in plastic vials at -70° C. (stable for at least six months). When needed, tissue was thawed at room temperature, disrupted in a Polytron, and kept on ice until used.
All incubations were for 60 minutes at 25° C. in 12×75 mm glass tubes containing 1 ml Tris with 5 mg original tissue weight of rat weight of rat striatal membranes, 4 nM [^3 H]-N-ethyl adenosine-5'-carboxamide ([^3 H]NECA), 50 nM N^6 -cyclopentyladenosine (to eliminate A1 receptor binding), 10 mM MgCl2, 0.1 units/ml of adenosine deaminase and 1% dimethylsulfoxide. N^6 -Cyclopentyladenosine was dissolved at 10 mM in 0.02N HCl and diluted in Tris. […]
Incubations were terminated by filtration through 2.4 cm GF/B filters under reduced pressure. […] Filters were put in scintillation vials, 8 ml of Formula 947 scintillation fluid added, and the vials left overnight, shaken, and counted in a liquid scintillation counter at 40% efficiency.
Nonspecific binding was defined as binding in the presence of 100 μM N^6 -cyclopentyladenosine, and specific binding was defined as total binding minus nonspecific binding. The IC50 was calculated by weighted nonlinear least squares curve-fitting to the mass-action equation. […]
Weighting factors were calculated under the assumption that the standard deviation was proportional to the predicted value of Y. Nonspecific binding was treated as a very large (inifinite) concentration of drug in the computer analysis.

rat heart = assay: Coronary Blood Flow Evaluation: isolated perfused rat heart; conditions: for activation at 1 µM / inhibition at 1 µM: 1 × 10^-6 Molar; for activation at 0.1 µM / inhibition at 0.1 µM: 1 × 10^-7 Molar; for activation at 0.01 µM / inhibition at 0.01 µM: 1 × 10^-8 Molar; for activation at 3 µM / inhibition at 3 µM: 3 × 10^-6 Molar; for activation at 0.3 µM / inhibition at 0.3 µM: 3 × 10^-7 Molar; for activation at 0.03 µM / inhibition at 0.03 µM: 3 × 10^-8 Molar
Protocol: The usefulness of the compounds of the present invention as agents effective to treat angina, is shown by their effectiveness in standard pharmacological test procedures, for example, in causing significant increase in coronary blood flow in rats. This test procedure is described in the following paragraphs.
Male rats (400-600 gms) are pretreated with Na heparin 2000 units and anesthetized with Na pentobarbital (50 mg/kg) administered intraperitoneally. Once anesthetized, the rat heart is rapidly excised, the ascending aorta fitted to the aortic perfusion cannula, and secured with a ligature. The coronary arteries were perfused initially at a rate of about 15 ml/min for two to three minutes, after which they are perfused at constant pressure of 70 mm Hg and temperature of 37° C. The electrocardiogram (ECG) is recorded using two platinum electrodes positioned at the base and apex of the left venticle. A second heart is excised, cannulated, and perfused by the same method outlined above. Both hearts are tested in parallel. The standard physiological salt solution (PSS) is a modified Krebs-Hanseleit bicarbonate buffer of the following composition in mM concentration: NaCl, 127; NaHCO3, 25; dextrose, 5.5; Na Pyruvate, 2.0; KCl, 4.7; MgSO4, 1.1; KH2 PO4, 1.2; CaCl2.2H2 O, 2.5; CaNa2 EDTA, 0.05.
A 30-minute stabilization period is observed before starting the test protocol.
The microprocessor control system is a servo mechanism which permits coronary perfusion pressure (CPP) and drug concentration to be maintained constant independent of changes in coronary flow. The level at which CPP and drug concentration are maintained can be changed by commands communicated through the microprocessor keyboard. Dose-response curves are carried out by perfusing concentrated drug solution (DC) at rates proportional to total coronary flow (CFT). Drug concentrations are increased by proportionate increases in the rate of DC infusion over CFT via the microprocessor keyboard. The proportional flow rates for DC:CFT is about 0.0002:1 at the low end and 0.02:1 at the high end of the dose-response curve. Dose-response curves encompassing at least two log doses are carried out by preparing two DCs with a concentration difference of 1:100. Following the first dose range of two log doses, the DC are switched, proportional pumping rate adjusted, and the dose-responsecurve continued for another two log doses. The standard dose-response curve is carried out in one-half log dose increments starting at a subthreshold dose and ending at a dose which produces near maximal response in activity. Standard reference compounds are tested over the range of 10^-9 to 10^-6 M.
Measurements are for heart rate (HR) and coronary flow (CF). Units are: HR, beats/minute (bpm) and CF, milliliters/minute (ml/min). HR is calculated from the ECG strip chart recording and CF is calculated by recording analog outputs from pumps 1 and 2. Outputs from pump #1=CFT and the output from pump #2=CF for heart B (CFB). CF for heart A (CFA) is calculated (CFT -CFB =CFA).
Using the above techniques, the effects of the compound of Examples 1, 2 and 3 are as follows indicating the compound of Example 3 is preferred to increase coronary blood flow.

adenosine A1 receptor = target: T2, adenosine A1 receptor (Rattus norvegicus, UniProt P25099); assay: Adenosine Receptor Binding--A1 Receptor Affinity (RBA1), [3H]-CHA displacement, rat whole brain membranes; parameters: species or system rat (male Long Evans); conditions: 1.0 nM [3H]-CHA, 25° C., one hour, read-out: IC50 for adenosine A1 receptor affinity (RBA-1)
T2 construct: Whole brain minus cerebellum and brainstem from male Long Evans rats; from tissue; host or cells: rat whole brain minus cerebellum and brainstem, membranes
T2 sequence (P25099 1-326): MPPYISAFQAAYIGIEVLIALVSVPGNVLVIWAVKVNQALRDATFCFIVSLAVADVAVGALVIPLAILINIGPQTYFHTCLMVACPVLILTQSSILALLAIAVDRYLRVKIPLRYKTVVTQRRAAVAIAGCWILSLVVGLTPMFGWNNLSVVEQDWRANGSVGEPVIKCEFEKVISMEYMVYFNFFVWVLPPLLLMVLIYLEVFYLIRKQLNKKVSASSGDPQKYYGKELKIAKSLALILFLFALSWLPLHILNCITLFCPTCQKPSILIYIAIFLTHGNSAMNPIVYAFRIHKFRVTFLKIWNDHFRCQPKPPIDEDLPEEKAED
Protocol: Whole brain minus cerebellum and brainstem from male Long Evans rats (150-200 g) was homogenized in 30 volumes of ice-cold 0.05M Tris-HCl buffer pH 7.7 using a Brinkman Polytron PT-10, (setting number 6 for 20 seconds) and centrifuged for ten minutes at 20,000×g (Sorvall RC-2), 4° C. The supernatant was discarded, and the pellet was resuspended and centrifuged as before. The pellet was resuspended in 20 ml Tris-HCl buffer containing two International Units/ml of adenosine deaminase (Sigma type III from calf intestinal mucosa), incubated at 37° C. for 30 minutes, then subsequently at 0° C. for ten minutes. The homogenate was again centrifuged, and the final pellet was resuspended in ice-cold 0.05M Tris-HCl buffer pH 7.7 to a concentration of 20 mg/ml original wet tissue weight and used immediately.
Tissue homogenate (10 mg/ml) was incubated in 0.05M Tris-HCl buffer pH 7.7 containing 1.0 nM [^3 H]-N^6 -cyclohexyladenosine ([^3 H]-CHA) with or without test agents in triplicate for one hour at 25° C. Incubation volume was 2 ml. Unbound [^3 H]-CHA was separated by rapid filtration under reduced pressure through Whatman glass fiber (GF/B) filters. The filters were rinsed three times with 5 ml of ice cold 0.05M Tris-HCl buffer pH 7.7. The radio-labeled ligand retained on the filter was measured by liquid scintillation spectrophotometry after shaking the filters for one hour or longer on a mechanical shaker in 10 ml of Beckman Ready-Solv HP scintillation cocktail.
Nonspecific binding was defined as the binding which occurred in the presence of 1 mM theophylline. The concentration of test agent which inhibited 50% of the specific binding (IC50) was determined by nonlinear computer curve fit. The Scatchard plot was calculated by linear regression of the line obtained by plotting the amount of radioligand bound (pmoles/gram of tissue) versus [formula] […] The Hill coefficient was calculated by linear regression of the line obtained by plotting the log of the bound radioligand vs the log of the [formula] The maximal number of binding sites (Bmax) was calculated from the Scatchard plot.

[1] = read-out: coronary flow (CF), % increase
[2] = read-out: heart rate (HR), % decrease

Structure (SMILES) | IC50 (adenosine A2 receptor) [nM] | activation at 1 µM (rat heart; [1]) [%] | inhibition at 1 µM (rat heart; [2]) [%] | activation at 0.1 µM (rat heart; [1]) [%] | inhibition at 0.1 µM (rat heart; [2]) [%] | activation at 0.01 µM (rat heart; [1]) [%] | inhibition at 0.01 µM (rat heart; [2]) [%] | activation at 3 µM (rat heart; [1]) [%] | inhibition at 3 µM (rat heart; [2]) [%] | activation at 0.3 µM (rat heart; [1]) [%] | inhibition at 0.3 µM (rat heart; [2]) [%] | activation at 0.03 µM (rat heart; [1]) [%] | inhibition at 0.03 µM (rat heart; [2]) [%] | IC50 (adenosine A1 receptor) [nM] | activation at 0.001 µM (rat heart; 1 × 10^-9 Molar, read-out: coronary flow (CF), % increase) [%] | inhibition at 0.001 µM (rat heart; 1 × 10^-9 Molar, read-out: heart rate (HR), % decrease) [%] | activation at 0.003 µM (rat heart; 3 × 10^-9 Molar, read-out: coronary flow (CF), % increase) [%] | inhibition at 0.003 µM (rat heart; 3 × 10^-9 Molar, read-out: heart rate (HR), % decrease) [%]
OC[C@H]1O[C@@H](n2cnc3c(NC4Cc5cccc6cccc4c56)ncnc32)[C@H](O)[C@@H]1O (stereo partly drawn) [Example 1, N^6 -Acenaphthyladenosine] | 950 | 44 | 5 | 27 | 2 | 0 | 1 | 49 | 8 | 40 | 2 | 7 | 0 | 640 |  |  |  | 
OC[C@H]1O[C@@H](n2cnc3c(NCC4Cc5cccc6cccc4c56)ncnc32)[C@H](O)[C@@H]1O (stereo partly drawn) [Example 3, N^6-[(1,2-Dihydro-1-acenaphthylenyl)methyl]adenosine] | 24 | 62 | 65 | 58 | 36 | 41 | 2 | 67 | 68 | 67 | 44 | 49 | 8 | 6 |  |  |  | 
OC[C@H]1O[C@@H](n2cnc3c(NCC4=Cc5cccc6cccc4c56)ncnc32)[C@H](O)[C@@H]1O [Example 2, N^6-(1-acenaphthylenylmethyl)adenosine] | 63 | 62 | 30 |  |  | 37 | 1 |  |  | 60 | 25 | 48 | 4 | 92 | 2 | -1 | 7 | -1
